Laboratory results reported in publication PMC10568017, “A quest for the stereo-electronic requirements for selective agonism for the neurotrophin receptors TrkA and TrkB in 17-spirocyclic-dehydroepiandrosterone derivatives” (Frontiers in Molecular Neuroscience, 2023).

What was measured:
[1] = target: T1, TrkB (Mus musculus, UniProt P15209); assay: TrkB phosphorylation assay in primary astrocytes (Western blot); format: cell-based; conditions: compound 1 μM, 20 min, after 6 h serum starvation, BDNF 500 ng/mL as control
T1 construct: primary cortical astrocytes from 2-day-old mice (as a natively TrkB-expressing neuronal population); endogenous in cells; host or cells: primary cortical astrocytes from C57B/6 mouse pups (P2)
T1 sequence (P15209 32-821): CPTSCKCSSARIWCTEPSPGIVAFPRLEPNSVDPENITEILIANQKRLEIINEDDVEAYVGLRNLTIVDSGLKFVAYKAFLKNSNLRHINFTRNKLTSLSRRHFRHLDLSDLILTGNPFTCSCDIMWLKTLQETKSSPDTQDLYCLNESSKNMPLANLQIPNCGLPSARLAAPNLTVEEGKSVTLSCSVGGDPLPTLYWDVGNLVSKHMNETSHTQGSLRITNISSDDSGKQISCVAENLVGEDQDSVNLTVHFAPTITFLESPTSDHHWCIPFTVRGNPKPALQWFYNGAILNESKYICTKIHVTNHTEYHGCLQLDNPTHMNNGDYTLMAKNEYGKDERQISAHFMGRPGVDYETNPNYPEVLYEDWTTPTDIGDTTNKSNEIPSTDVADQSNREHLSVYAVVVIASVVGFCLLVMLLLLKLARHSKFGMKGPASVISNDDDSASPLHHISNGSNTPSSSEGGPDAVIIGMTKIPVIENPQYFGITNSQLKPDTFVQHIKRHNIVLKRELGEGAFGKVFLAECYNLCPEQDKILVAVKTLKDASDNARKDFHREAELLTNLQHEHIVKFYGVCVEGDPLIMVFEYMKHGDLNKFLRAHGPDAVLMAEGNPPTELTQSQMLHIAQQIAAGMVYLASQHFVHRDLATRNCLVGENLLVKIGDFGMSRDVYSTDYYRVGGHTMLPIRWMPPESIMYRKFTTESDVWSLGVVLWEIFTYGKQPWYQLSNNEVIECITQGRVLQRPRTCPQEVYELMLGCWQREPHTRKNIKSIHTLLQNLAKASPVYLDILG
Description: We tested compounds on three cellular systems, primary cortical astrocytes from 2-day-old mice (as a natively TrkB-expressing neuronal population), and NIH-3T3 fibroblasts stable transfected with TrkB and NIH-3T3 naïve cells. Cells were grown with high-glucose DMEM medium supplemented with 10% fetal bovine serum (FBS), 100 μg/mL streptomycin, and 100 units/mL penicillin at 37°C in a humidified 5% CO2 atmosphere. Phosphorylation results presented here are in primary astrocytes, and cell toxicity assay results are in NIH-3T3 stable transfected cells with TrkB.
Cells were plated in 12 well plates, at a density of 100,000 cells per well, with 6 h of serum deprivation carried out on the following day. To assess the effect of compounds on TrkB phosphorylation, 20-min treatments were applied, using either BDNF at 500 ng/mL (Peprotech 450-02) (positive control) or compounds at 1 μM.
Cell lysis for 10 min was carried out on ice using the Pierce IP Lysis Buffer by Thermo Scientific and a phospho-protease inhibitor cocktail by Millipore. After adding loading buffer (5 × Laemni), 25 μg from each protein sample were incubated for 5 min at 95°C and subjected to SDS-PAGE. Proteins were transferred to a nitrocellulose membrane at 350 mA for 2 h. Membrane blocking was performed using 5% bovine serum albumin (BSA) at room temperature for 1 h, before adding the primary antibodies to the blocking solution at 4°C overnight. HRP-conjugated secondary antibodies were used for the detection of chemiluminescence with ECL solution. Primary antibodies: Phospho-TrkB (Tyr816) Millipore # ABN1381, and Anti-TrkB Abcam #ab33655.
Mixed glial cultures were isolated from the cortex of C57B/6 pups at post-natal day 2 (P2). Cells were plated in a medium containing high-glucose DMEM, 200 U/mL penicillin, 200 μg/mL streptomycin, and 10% fetal bovine serum (FBS). When cells reach 100% confluency (7–8 days), the anti-mitotic agent Ara-C was added in the media at a final concentration of 10 μM, for 3 to 4 days to target the highly proliferative microglial cells. Ara-C was removed, and primary astrocytes (97% purity) were cultured at 5% CO2 and 37°C.
Cells were plated at 70–80% confluency. The next day, they were deprived of serum for 6 h and subsequently treated with 500 ng/mL BDNF or 1 μM of compounds for 20 min. Cells were then lysed in Pierce™ IP Lysis Buffer (87788, Thermo Fischer Scientific, Rockford, USA), containing proteases (539138, Calbiochem, Darmstadt, Germany), and phosphatase inhibitors (524629, Calbiochem, Darmstadt, Germany). Lysates were then suspended in an SDS loading buffer and subjected to Western blot against phosphorylated TrkB (1:1,000, ABN1381, Sigma-Aldrich, St. Louis, MO, USA) and total TrkB (1:1,000, 07-225-I, Sigma-Aldrich, St. Louis, MO, USA).

[2] = test system: PC12 cells; assay: CellTox assay, survival of PC12 cells under serum deprivation; format: cell-based; conditions: compound 500 nM, 24 h, after 4 h serum starvation; NGF 100 ng/mL as control (Figure 9)
[3] = target: T2, CYP2C9 (Homo sapiens, UniProt P11712); assay: Isozyme-specific CYP450 inhibition, CYP2C9; format: in vitro ADME; conditions: 1 μM, 60 min, recombinant human CYP450 (Baculosomes)
T2 construct: purchased Thermo Fisher Scientific; host or cells: Baculosomes
T2 sequence (P11712 whole entry): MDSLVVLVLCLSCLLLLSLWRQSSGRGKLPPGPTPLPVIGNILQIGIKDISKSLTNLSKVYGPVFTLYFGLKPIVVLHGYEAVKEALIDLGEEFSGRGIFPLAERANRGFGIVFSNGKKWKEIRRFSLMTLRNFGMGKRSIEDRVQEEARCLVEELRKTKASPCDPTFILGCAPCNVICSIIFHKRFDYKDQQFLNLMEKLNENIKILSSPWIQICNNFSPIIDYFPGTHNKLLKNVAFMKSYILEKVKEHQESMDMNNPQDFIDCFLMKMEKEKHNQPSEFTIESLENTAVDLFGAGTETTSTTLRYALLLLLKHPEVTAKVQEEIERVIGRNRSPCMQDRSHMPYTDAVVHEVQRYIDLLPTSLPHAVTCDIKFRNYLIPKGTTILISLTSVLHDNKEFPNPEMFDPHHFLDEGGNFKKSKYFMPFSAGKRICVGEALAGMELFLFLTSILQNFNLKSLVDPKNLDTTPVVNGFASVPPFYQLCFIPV
Description: Human cytochrome P450 (CYP450) isoenzymes were expressed in Baculosomes®, purchased from Thermo Fisher Scientific (Waltham, MA, USA). All reagents were handled and prepared according to the manufacturer's protocol. Test compounds were assessed at 1 μM for their effects on CYP1A2, CYP2A6, CYP2C9, CYP2C19, CYP2D6, and CYP3A4. Approximately 1 μM was selected based on our ADMET standard operating procedures and protocols also published previously (Rogdakis et al., [2022]; Yilmaz et al., [2022]). CYP450-enzymatic activity was determined based on the kinetic model for each CYP450 isoform (Cohen et al., [2003]; Veith et al., [2009]). Reactions took place in triplicates at 20°C. For this, NADP^+ (10 mM in 100 mM potassium phosphate, pH 8.0) was converted into NADPH by the regeneration system present (glucose-6-phosphate at 333 mM and glucose-6-phosphate-dehydrogenase at 30 U/mL in 100 mM potassium phosphate, pH 8.0). Following the addition of the fluorescent substrate, signal monitoring over time took place immediately (<2 min) at suitable excitation and emission wavelengths (Agilent BioTek Lionheart FX). CYP450 inhibition (%) was determined based on the reaction rates (fluorescence intensity changes per unit time). In total, n = 60 measurements […] were acquired (t = 60 min).
% Inhibition=(1-X/A)×100%
X is the rate observed in the presence of the test compound.
A is the rate observed in the presence of the negative (solvent, DMSO) control.

With `C[C@]12CC[C@H](O)CC1=CC[C@@H]1[C@@H]2CC[C@@]2(C)[C@H]1CC[C@@]21CC=C(Cn2cc(Cc3ccccc3)nn2)CO1` [ENT-A055, (3S,17R)-5′-[(4-benzyl-1H-1,2,3-triazol-1-yl)methyl]-3′,6′-dihydrospiro[5-androstene-17,2′-pyran]-3-ol] the “phosphorylation levels of the TrkB receptor” value [1] was “successfully increased phosphorylation levels of the TrkB receptor compared to the untreated control”, the “protection of PC12 cells from serum deprivation-induced cell death (CellTox)” value [2] was “without showing any antiapoptotic activity in PC12 cells” and the “inhibition for CYP2C9” value [3] was “moderate-to-strong inhibition”.
